Values belong to the compound of their own block, whether it stands above or below them. Active and inactive are the calls of the source. No cut-off for these calls is given here.
Tests used:
[1] = molecular target: Aurora kinase B (Homo sapiens) (UniProt Q96GD4); assay: Inhibition of Aurora kinase B in human RPE-MYC cells transfected with BCL2 assessed as inhibition of histone H3 phosphorylation at Ser10 residue at 200 nM measured after 6 hrs by immunofluorescence staining based analysis; assay type: cell-based
Chain of Aurora kinase B (Homo sapiens) (Q96GD4 whole entry): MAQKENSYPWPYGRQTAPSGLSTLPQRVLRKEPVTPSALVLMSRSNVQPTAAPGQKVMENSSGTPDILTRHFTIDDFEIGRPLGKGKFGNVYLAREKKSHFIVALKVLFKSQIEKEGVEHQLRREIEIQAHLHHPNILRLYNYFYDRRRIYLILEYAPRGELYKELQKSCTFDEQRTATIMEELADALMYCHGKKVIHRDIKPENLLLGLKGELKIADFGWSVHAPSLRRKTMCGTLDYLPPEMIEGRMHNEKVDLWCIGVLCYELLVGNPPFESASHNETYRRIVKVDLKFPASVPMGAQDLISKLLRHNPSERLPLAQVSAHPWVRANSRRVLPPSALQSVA

[2] = molecular target: Aurora kinase B (Homo sapiens) (UniProt Q96GD4); assay: Inhibition of Aurora kinase B in human RPE-MYC cells transfected with BCL2 assessed as inhibition of histone H3 phosphorylation at Ser10 residue at 2.5 nM measured after 6 hrs by immunofluorescence staining based analysis; assay type: cell-based
[3] = molecular target: Aurora kinase B (Homo sapiens) (UniProt Q96GD4); assay: Inhibition of Aurora kinase B in human RPE-MYC cells transfected with BCL2 assessed as inhibition of histone H3 phosphorylation at Ser10 residue at >5 nM measured after 6 hrs by immunofluorescence staining based analysis; assay type: cell-based
[4] = molecular target: T1, Aurora kinase A (Homo sapiens) (UniProt O14965); assay: Inhibition of Aurora kinase A in human RPE-MYC cells transfected with BCL2 assessed as inhibition of protein autophosphorylation at Thr288 residue at 2.5 nM measured after 6 hrs by immunofluorescence staining based analysis; assay type: cell-based
T1 sequence (whole entry): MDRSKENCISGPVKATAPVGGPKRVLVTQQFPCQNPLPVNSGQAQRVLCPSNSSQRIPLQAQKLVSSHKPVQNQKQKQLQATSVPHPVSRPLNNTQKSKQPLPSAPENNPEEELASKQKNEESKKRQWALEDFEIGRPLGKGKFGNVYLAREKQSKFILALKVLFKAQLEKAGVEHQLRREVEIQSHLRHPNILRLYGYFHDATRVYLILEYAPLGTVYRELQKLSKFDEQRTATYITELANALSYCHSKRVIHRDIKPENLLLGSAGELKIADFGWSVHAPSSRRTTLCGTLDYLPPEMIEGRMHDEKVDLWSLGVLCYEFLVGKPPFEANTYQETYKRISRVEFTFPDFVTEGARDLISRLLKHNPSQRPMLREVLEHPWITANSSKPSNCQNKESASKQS

[5] = molecular target: T1, Aurora kinase A (Homo sapiens); assay: Inhibition of Aurora kinase A in human RPE-MYC cells transfected with BCL2 assessed as inhibition of protein autophosphorylation at Thr288 residue at 160 nM measured after 6 hrs by immunofluorescence staining based analysis; assay type: cell-based
[6] = molecular target: Aurora kinase B (Homo sapiens) (UniProt Q96GD4); assay: Inhibition of Aurora kinase B in human NCI-H23 cells transfected with BCL2 assessed as inhibition of histone H3 phosphorylation at Ser10 residue at 2.5 nM measured after 6 hrs by immunofluorescence staining based analysis; assay type: cell-based
[7] = molecular target: T1, Aurora kinase A (Homo sapiens); assay: Inhibition of Aurora kinase A in human NCI-H23 cells transfected with BCL2 assessed as inhibition of protein autophosphorylation at Thr288 residue at 2.5 nM measured after 6 hrs by immunofluorescence staining based analysis; assay type: cell-based
[8] = Induction of mitotic arrest in human RPE-MYC cells transfected with BCL2 assessed as mitotic index at 2.5 nM measured after 24 hrs by DAPI staining based bright field microscopic analysis (reference value: 3.5%); assay type: functional
[9] = molecular target: Aurora kinase B (Homo sapiens) (UniProt Q96GD4); assay: Disruption of AURKB localization in human RPE-MYC cells transfected with BCL2 assessed as misaligned chromosomes in metaphase-like cells at 2.5 nM measured after 24 hrs by immunofluorescence staining based analysis; assay type: cell-based
[10] = molecular target: Aurora kinase B (Homo sapiens) (UniProt Q96GD4); assay: Disruption of AURKB localization in human RPE-MYC cells transfected with BCL2 assessed as lagging chromosomes in anaphase cells at 2.5 nM measured after 24 hrs by immunofluorescence staining based analysis; assay type: cell-based
[11] = molecular target: Aurora kinase B (Homo sapiens) (UniProt Q96GD4); assay: Disruption of AURKB localization in human RPE-MYC cells transfected with BCL2 assessed as accumulation of polyploid cells with multilobular nuclei at 2.5 nM measured after 48 hrs by immunofluorescence staining based analysis; assay type: cell-based
[12] = molecular target: Aurora kinase B (Homo sapiens) (UniProt Q96GD4); assay: Disruption of AURKB localization during anaphase in human NCI-H23 cells at 2.5 nM measured after 24 hrs by immunofluorescence staining based analysis; assay type: cell-based
[13] = molecular target: Aurora kinase B (Homo sapiens) (UniProt Q96GD4); assay: Disruption of AURKB localization in human RPE-MYC transfected with GFP-H2B assessed as minimal effective concentration that induces mitotic arrest, polyploidy, cell death and cell number reduction by MIPS assay; assay type: cell-based
[14] = molecular target: Aurora kinase B (Homo sapiens) (UniProt Q96GD4); assay: Inhibition of Aurora kinase B in human RPE-MYC cells transfected with BCL2 assessed as inhibition of histone H3 phosphorylation at Ser10 residue by immunofluorescence staining based analysis; assay type: cell-based
[15] = molecular target: T1, Aurora kinase A (Homo sapiens); assay: Inhibition of Aurora kinase A in human RPE-MYC cells transfected with BCL2 assessed as inhibition of protein autophosphorylation at Thr288 residue by immunofluorescence staining based analysis; assay type: cell-based
[16] = molecular target: Aurora kinase B (Homo sapiens) (UniProt Q96GD4); assay: Inhibition of Aurora kinase B in human RPE-MYC cells transfected with BCL2 assessed as inhibition of histone H3 phosphorylation at Ser10 residue at MEC for polyploidy measured after 6 hrs by immunofluorescence staining based analysis; assay type: cell-based
[17] = molecular target: Aurora kinase B (Homo sapiens) (UniProt Q96GD4); assay: Disruption of AURKB localization in human RPE-MYC cells transfected with BCL2 assessed as mislocalization of AURKB at the spindle zone in anaphase cells by immunofluorescence staining based analysis; assay type: cell-based
[18] = molecular target: Aurora kinase B (Homo sapiens) (UniProt Q96GD4); assay: Disruption of AURKB localization in human RPE-MYC cells transfected with BCL2 assessed as loss of localization of PLK1 at the spindle-midzone by immunofluorescence staining based analysis; assay type: cell-based
[19] = molecular target: Aurora kinase B (Homo sapiens) (UniProt Q96GD4); assay: Disruption of AURKB localization in human RPE-MYC cells transfected with BCL2 assessed as loss of localization of MKLP1 at the spindle-midzone by immunofluorescence staining based analysis; assay type: cell-based
[20] = molecular target: Aurora kinase B (Homo sapiens) (UniProt Q96GD4); assay: Disruption of AURKB localization in human RPE-MYC cells transfected with BCL2 assessed as loss of localization of microtubules at the spindle-midzone by immunofluorescence staining based analysis; assay type: cell-based
[21] = molecular target: Aurora kinase B (Homo sapiens) (UniProt Q96GD4); assay: Inhibition of Aurora kinase B in human RPE-MYC cells transfected with BCL2 assessed as inhibition of histone H3 phosphorylation at Ser10 residue at highest concentration measured after 6 hrs by immunofluorescence staining based analysis; assay type: cell-based
[22] = test system: Mus musculus; assay: Induction of mitotic arrest in BALB/c mouse xenografted with human NCI-H23 cells assessed as increase in mitotic index in tumor at 50 mg/kg, po bid for 7 days by immunohistochemical staining based analysis; assay type: functional, organism-based; conditions: time 7.0 day
[23] = molecular target: T1, Aurora kinase A (Homo sapiens); assay: Inhibition of Aurora kinase A (unknown origin)
[24] = molecular target: Aurora kinase B (Homo sapiens) (UniProt Q96GD4); assay: Inhibition of Aurora kinase B (unknown origin)
[25] = test system: Phosphatidylinositol 4,5-bisphosphate 3-kinase catalytic subunit alpha isoform (Homo sapiens), P42336 [E545K]; assay: Inhibition of PI3KCA E545K mutant (unknown origin)
Chain of Phosphatidylinositol 4,5-bisphosphate 3-kinase catalytic subunit alpha isoform (Homo sapiens), P42336 [E545K] (P42336 whole entry E545K, canonical isoform): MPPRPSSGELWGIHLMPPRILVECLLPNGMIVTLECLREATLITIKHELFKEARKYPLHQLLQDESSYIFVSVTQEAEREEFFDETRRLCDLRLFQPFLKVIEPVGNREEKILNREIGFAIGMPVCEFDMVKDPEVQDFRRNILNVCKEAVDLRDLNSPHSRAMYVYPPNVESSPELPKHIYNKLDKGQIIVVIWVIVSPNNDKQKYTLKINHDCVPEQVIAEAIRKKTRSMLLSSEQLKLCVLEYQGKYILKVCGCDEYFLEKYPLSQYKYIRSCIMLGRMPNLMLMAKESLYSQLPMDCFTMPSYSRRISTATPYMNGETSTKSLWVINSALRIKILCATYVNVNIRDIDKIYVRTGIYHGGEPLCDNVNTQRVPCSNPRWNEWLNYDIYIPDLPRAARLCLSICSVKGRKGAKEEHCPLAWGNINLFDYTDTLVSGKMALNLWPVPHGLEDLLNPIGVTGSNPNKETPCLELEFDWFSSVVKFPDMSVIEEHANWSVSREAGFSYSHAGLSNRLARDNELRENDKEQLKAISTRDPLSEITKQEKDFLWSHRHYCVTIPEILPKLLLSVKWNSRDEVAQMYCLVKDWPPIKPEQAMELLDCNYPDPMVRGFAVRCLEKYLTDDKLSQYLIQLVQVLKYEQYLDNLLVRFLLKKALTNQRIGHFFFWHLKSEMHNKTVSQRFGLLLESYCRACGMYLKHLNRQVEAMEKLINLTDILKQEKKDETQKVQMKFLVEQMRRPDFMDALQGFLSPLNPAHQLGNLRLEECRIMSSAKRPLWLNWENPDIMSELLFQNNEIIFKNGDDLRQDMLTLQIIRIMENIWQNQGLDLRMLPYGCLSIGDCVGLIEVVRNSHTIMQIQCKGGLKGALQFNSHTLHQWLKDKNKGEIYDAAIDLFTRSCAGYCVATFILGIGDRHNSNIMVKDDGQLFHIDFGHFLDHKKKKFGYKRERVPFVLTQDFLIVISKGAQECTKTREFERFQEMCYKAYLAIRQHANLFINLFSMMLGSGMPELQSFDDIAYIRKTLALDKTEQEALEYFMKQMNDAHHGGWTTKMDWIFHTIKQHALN

[26] = test system: NCI-H23; assay: Antitumor activity against human NCI-H23 cells xenografted in BALB/c mouse assessed as suppression of tumor growth at 50 mg/kg, po bid for 7 days; assay type: functional, organism-based; conditions: time 7.0 day
[27] = test system: Mus musculus; assay: Induction of apoptosis in BALB/c mouse xenografted with human NCI-H23 cells assessed as increase in caspase-3 activation in tumor at 50 mg/kg, po bid for 7 days by immunohistochemical staining based analysis; assay type: functional, organism-based; conditions: time 7.0 day
[28] = molecular target: Aurora kinase B (Homo sapiens) (UniProt Q96GD4); assay: Inhibition of Aurora kinase B in human RPE-MYC cells transfected with BCL2 assessed as inhibition of histone H3 phosphorylation at Ser10 residue at 40 nM measured after 6 hrs by immunofluorescence staining based analysis; assay type: cell-based
[29] = molecular target: Aurora kinase B (Homo sapiens) (UniProt Q96GD4); assay: Disruption of AURKB localization in human RPE-MYC cells transfected with BCL2 assessed as mislocalization of AURKB at the spindle zone in anaphase cells at 40 nM measured after 6 hrs by immunofluorescence staining based analysis; assay type: cell-based
[30] = molecular target: Aurora kinase B (Homo sapiens) (UniProt Q96GD4); assay: Disruption of AURKB localization in human RPE-MYC cells transfected with BCL2 assessed as localization of AURKB on kinetochore at 40 nM measured after 6 hrs by immunofluorescence staining based analysis; assay type: cell-based
[31] = Dose normalized AUC (0 to 6 hrs) in BALB/c mouse at 50 mg/kg, po compound formulated in PEG300 and administered as single dose by LC-MS/MS analysis; assay type: ADME, organism-based; conditions: in vivo
[32] = Cmax in BALB/c mouse at 50 mg/kg, po compound formulated in PEG300 and administered as single dose by LC-MS/MS analysis; assay type: ADME, organism-based; set-up: dose 50 mg/kg, route po; conditions: in vivo
[33] = molecular target: Aurora kinase B (Homo sapiens) (UniProt Q96GD4); assay: Disruption of AURKB localization in human RPE-MYC cells transfected with BCL2 assessed as loss of localization of PLK1 at the spindle-midzone at 40 nM measured after 6 hrs by immunofluorescence staining based analysis; assay type: cell-based
[34] = molecular target: Aurora kinase B (Homo sapiens) (UniProt Q96GD4); assay: Disruption of AURKB localization in human RPE-MYC cells transfected with BCL2 assessed as localization of PLK1 at mitotic centrosomes at 40 nM measured after 6 hrs by immunofluorescence staining based analysis; assay type: cell-based
[35] = molecular target: Aurora kinase B (Homo sapiens) (UniProt Q96GD4); assay: Disruption of AURKB localization in human RPE-MYC cells transfected with BCL2 assessed as localization of PLK1 at spindle poles at 40 nM measured after 6 hrs by immunofluorescence staining based analysis; assay type: cell-based
[36] = molecular target: Aurora kinase B (Homo sapiens) (UniProt Q96GD4); assay: Disruption of AURKB localization in human RPE-MYC cells transfected with BCL2 assessed as loss of localization of MKLP1 at the spindle-midzone at 40 nM measured after 6 hrs by immunofluorescence staining based analysis; assay type: cell-based
[37] = molecular target: Aurora kinase B (Homo sapiens) (UniProt Q96GD4); assay: Disruption of AURKB localization in human RPE-MYC cells transfected with BCL2 assessed as loss of localization of microtubules at the spindle-midzone at 40 nM measured after 6 hrs by immunofluorescence staining based analysis; assay type: cell-based
[38] = test system: NCI-H23; assay: Antitumor activity against human NCI-H23 cells xenografted in BALB/c mouse assessed as reduction in cellular density in tumor at 50 mg/kg, po bid for 7 days by Hematoxylin and Eosin staining based analysis; assay type: functional, organism-based; conditions: time 7.0 day

inhibition [1]: 100%
SMILES: CCN(CCCOc1ccc2c(Nc3cc(CC(=O)Nc4cccc(F)c4)[nH]n3)ncnc2c1)CCOP(=O)(O)O

inhibition [2]: inactive
inhibition [3]: Active
inhibition [4]: inactive
inhibition [5]: 100%
inhibition [6]: inactive
inhibition [7]: inactive
Activity [9]: Active
Activity [10]: Active
Activity [11]: Active
Activity [12]: Active
SMILES: Cc1csc(-c2nnc(Nc3ccc(Oc4ncccc4-c4ccnc(N)n4)cc3)c3ccccc23)c1 [AMG-900]
Activity [8]: 7.8%

SMILES: Nc1nccc(-c2cccnc2Oc2ccccc2)n1
MEC [13]: > 20 µM

inhibition [14]: inactive
inhibition [15]: inactive
SMILES: COc1cc(OC)cc(Oc2ncccc2-c2ccnc(OC)c2)c1
MEC [13]: 0.07 µM

inhibition [14]: inactive
inhibition [15]: inactive
SMILES: COc1cc(OC)cc(Oc2ncccc2-c2ccnc(C)c2)c1
MEC [13]: 0.08 µM

inhibition [16]: inactive
Activity [17]: Active
Activity [18]: Active
Activity [19]: Active
Activity [20]: Active
SMILES: CNC(=O)c1cc(OC)cc(Oc2ncccc2-c2ccnc(OC)c2)c1
MEC [13]: 0.03 µM

SMILES: CNC(=O)c1cc(OC)cc(Oc2ncccc2-c2ccnc(C)c2)c1
MEC [13]: 0.12 µM

inhibition [16]: Active
inhibition [21]: < 68%
Activity [17]: Active
Activity [18]: Active
Activity [19]: Active
Activity [20]: Active
SMILES: COc1cc(NC(C)=O)cc(Oc2ncccc2-c2ccnc(OC)c2)c1
MEC [13]: 0.03 µM

SMILES: CNC(=O)c1cc(OC)cc(Oc2ncccc2-c2ccncc2)c1
MEC [13]: 0.47 µM

SMILES: COC(=O)c1cccc(Oc2ncccc2-c2ccnc(N)n2)c1
MEC [13]: 0.85 µM

SMILES: COc1ccc(Oc2ncccc2-c2ccnc(N)n2)cc1
MEC [13]: > 20 µM

SMILES: Nc1cccc(Oc2ncccc2-c2ccnc(N)n2)c1
MEC [13]: 20 µM

SMILES: COc1cc(Oc2ncccc2-c2ccncc2)cc(C(=O)N(C)C)c1
MEC [13]: 2.08 µM

SMILES: COc1cc(OC)cc(Oc2ncccc2-c2ccnc(C)n2)c1
MEC [13]: 1.29 µM

SMILES: COC(=O)c1cc(OC)cc(Oc2ncccc2-c2ccnc(N)n2)c1
MEC [13]: 0.03 µM

inhibition [16]: Active
inhibition [21]: < 68%
inhibition [23]: inactive
inhibition [24]: inactive
inhibition [25]: Active
inhibition [28]: Active
Activity [29]: Active
Activity [30]: inactive
AUC/dose [31]: 0.35 µM·h/mg/kg
Cmax [32]: 6.9 µM
Activity [33]: Active
Activity [34]: inactive
Activity [35]: inactive
Activity [36]: Active
Activity [37]: Active
SMILES: CNC(=O)c1cc(Oc2ncccc2-c2ccnc(OC)c2)cc(OC(F)(F)F)c1
Activity [22]: Active
MEC [13]: 0.02 µM
Activity [26]: Active
Activity [27]: Active
Activity [38]: Active

Reference: ChEMBL document CHEMBL5385867, “2-Phenoxy-3, 4'-bipyridine derivatives inhibit AURKB-dependent mitotic processes by disrupting its localization” (Eur J Med Chem, 2023)
